Laboratory results: patent CN116283752A (priority 2023, dated 2023)
Converted amounts (≈) assume the structure as drawn. Read-outs that look alike come from different tables or passages of the source.

Assays:
Format in all cases: cell-based
[1] = tested on: autoluminescent Mycobacterium tuberculosis H37Ra [自主发光Mtb H37Ra]; experiment: microbe, parasite or virus in culture
[2] = tested on: Mycobacterium tuberculosis H37Ra [结核分枝杆菌H37Ra]
[3] = tested on: wild-type Mycobacterium tuberculosis H37Rv [野生型结核分枝杆菌(H37Rv)]; experiment: microbe, parasite or virus in culture; conditions: Alamar Blue, 37℃, 10 days + 1 day; for MIC: compound alone; for MIC + TB47: with TB47 0.003 μg/mL
[4] = Mycobacterium tuberculosis, H37RA, read-out: MIC
[5] = Mycobacterium tuberculosis, read-out: MIC

Row | Compound | MIC [1, 4] [µg/mL] | MIC [1] [µg/mL] | MIC in synergy with TB47 [2] [µg/mL] | MIC [3, 5] [µg/mL] | MIC + TB47 [3] [µg/mL] | MIC [3] [µg/mL]
1 | O=C(Nc1cc(Cl)ncn1)c1cc(Cl)ccc1O [compound 14, 5-氯-N-(6-氯-4-嘧啶基)-2-羟基苯甲酰胺] | 2.5 (≈ 8.8 µM) | – | – | – | – | –
2 | O=C(Nc1ccc(Cl)cn1)c1cc(Cl)ccc1O [化合物1, 5-氯-N-(5-氯-2-吡啶基)-2-羟基苯甲酰胺] | 5 (≈ 17.7 µM) | – | – | – | – | –
3 | O=C(Nc1ccc(Cl)nn1)c1cc(Cl)ccc1O [compound 19, 5-氯-N-(6-氯-3-哒嗪基)-2-羟基苯甲酰胺] | 10 (≈ 35.2 µM) | – | – | – | – | –
4 | O=C(Nc1ccc(C(F)(F)F)nc1)c1cc(Cl)ccc1O [化合物3, 5-氯-2-羟基-N-(6-三氟甲基-3-吡啶基)-苯甲酰胺] | 4 (≈ 12.6 µM) | 4 (≈ 12.6 µM) | 0.25 | 4 | 0.5 | –
5 | O=C(Nc1cnc(Cl)c(Cl)c1)c1cc(Cl)ccc1O [化合物7, 5-氯-N-(5,6-二氯-3-吡啶基)-2-羟基苯甲酰胺] | 2.5 (≈ 7.87 µM) | – | – | 4 | 0.25 | –
6 | O=C(Nc1nc2ccc(OC(F)(F)F)cc2s1)c1cc(Cl)ccc1O [compound 17, 5-氯-2-羟基-N-(6-三氟甲氧基-2-苯并噻唑基)-苯甲酰胺] | 10 (≈ 25.7 µM) | – | – | – | – | –
7 | O=C(Nc1cc(C(F)(F)F)ncn1)c1cc(Cl)ccc1O [compound 16, 5-氯-2-羟基-N-(6-三氟甲基-4-嘧啶基)-苯甲酰胺] | 2.5 (≈ 7.87 µM) | 2.5 (≈ 7.87 µM) | 0.625 | – | – | –
8 | O=C(Nc1cnc(C(F)(F)F)cn1)c1cc(Cl)ccc1O [化合物11, 5-氯-2-羟基-N-(5-三氟甲基-2-吡嗪基)-苯甲酰胺] | 1.25 (≈ 3.94 µM) | 1.25 (≈ 3.94 µM) | 0.625 | 2 | < 0.125 | 2
9 | O=C(Nc1ccc(Cl)nc1Cl)c1cc(Cl)ccc1O [化合物8, 5-氯-N-(2,6-二氯-3-吡啶基)-2-羟基苯甲酰胺] | 2.5 (≈ 7.87 µM) | 2.5 (≈ 7.87 µM) | 0.625 | 4 | 0.25 | –
10 | O=C(Nc1cnc(Cl)cn1)c1cc(Cl)ccc1O [compound 9, 5-氯-N-(5-氯-2-吡嗪基)-2-羟基苯甲酰胺] | 4 (≈ 14.1 µM) | – | – | – | – | –
11 | O=C(Nc1nccc(C(F)(F)F)n1)c1cc(Cl)ccc1O [compound 15, 5-氯-2-羟基-N-(4-三氟甲基-2-嘧啶基)-苯甲酰胺] | 5 (≈ 15.7 µM) | – | – | – | – | –
12 | O=C(Nc1cncc(C(F)(F)F)c1)c1cc(Cl)ccc1O [compound 5, 5-氯-2-羟基-N-(5-三氟甲基-3-吡啶基)-苯甲酰胺] | 5 (≈ 15.8 µM) | – | – | – | – | –
13 | O=C(Nc1ncc(Cl)cn1)c1cc(Cl)ccc1O [compound 12, 5-氯-N-(5-氯-2-嘧啶基)-2-羟基苯甲酰胺] | 5 (≈ 17.6 µM) | – | – | – | – | –
14 | O=C(Nc1ncc(Cl)s1)c1cc(Cl)ccc1O [compound 21, 5-氯-N-(5-氯-2-噻唑基)-2-羟基苯甲酰胺] | 5 (≈ 17.3 µM) | – | – | – | – | –
15 | O=C(Nc1nc2ccc(C(F)(F)F)cc2s1)c1cc(Cl)ccc1O [化合物18, 5-氯-2-羟基-N-(6-三氟甲基-2-苯并噻唑基)-苯甲酰胺] | 5 (≈ 13.4 µM) | 5 (≈ 13.4 µM) | 0.625 | – | – | –
16 | O=C(Nc1cncc(Cl)n1)c1cc(Cl)ccc1O [化合物10, 5-氯-N-(6-氯-2-吡嗪基)-2-羟基苯甲酰胺] | 2.5 (≈ 8.8 µM) | – | – | 4 | 0.25 | –
17 | O=C(Nc1cnc(Cl)nc1)c1cc(Cl)ccc1O [compound 13, 5-氯-N-(2-氯-5-嘧啶基)-2-羟基苯甲酰胺] | 5 (≈ 17.6 µM) | – | – | – | – | –
18 | O=C(Nc1ccnc(C(F)(F)F)c1)c1cc(Cl)ccc1O [化合物4, 5-氯-2-羟基-N-(2-三氟甲基-4-吡啶基)-苯甲酰胺] | 1.25 (≈ 3.95 µM) | 1.25 (≈ 3.95 µM) | 0.625 | 2 | < 0.125 | 2
19 | O=C(Nc1ccc(C(F)(F)F)cn1)c1cc(Cl)ccc1O [化合物2, 5-氯-2-羟基-N-(5-三氟甲基-2-吡啶基)-苯甲酰胺] | 1.25 (≈ 3.95 µM) | 1.25 (≈ 3.95 µM) | – | – | – | –
20 | O=C(Nc1cc(Cl)nc(Cl)c1)c1cc(Cl)ccc1O [compound 6, 5-氯-N-(2,6-二氯-4-吡啶基)-2-羟基苯甲酰胺] | 1.25 (≈ 3.94 µM) | 1.25 (≈ 3.94 µM) | 0.625 | – | – | –
21 | O=C(Nc1nnc(C(F)(F)F)s1)c1cc(Cl)ccc1O [compound 20, 5-氯-2-羟基-N-[5-三氟甲基-2-(1,3,4-噻二唑基)]-苯甲酰胺] | 10 (≈ 30.9 µM) | – | – | – | – | –
